Data taken from US9200171B2, “AZO compound and ink containing the compound” (MITSUBISHI CHEMICAL CORPORATION, priority 2011, dated 2015).
In brackets after ≈: the same amount, converted by molar mass.

Tests used:
Format in all cases: physicochemical
[1] = Relative permittivity of solvent (impedance meter method, 1 kHz, 22° C.); settings: frequency 1 kHz
Source text: In the case where the solvent is used as a mixture, when the interaction between the solvents is small as in the invention, the relative permittivity of the mixed solvent can be approximated by multiplying relative permittivity of each solvent constituting the mixed solvent by each volume fraction and summing respective products. Moreover, when the interaction between the solvents is similarly small, solubility of the mixed solvent in water can be approximated by a value obtained by multiplying solubility of each solvent constituting the mixed solvent in water by each molar fraction and summing respective products.
Thereafter, the equivalent parallel capacity was measured while applying a test signal voltage of 0.1 V at a frequency of 1 kHz at 22° C. The relative permittivity was determined through the calculation according to the following equation to evaluate the solvent or ink. Relative permittivity=(equivalent parallel capacity)×(electrode spacing)/(electrode area)/(permittivity in vacuum (ε0)) <Method for Measuring Solubility of Solvent in Water>

[2] = Solubility of solvent in water at 25° C.; settings: pure water, thermodynamic from solid, single solvent
Method: Pure water (30 g) and a solvent (8 g) were introduced into 110 ml of a vial, which was shaken 200 times/minute for 4 hours in a constant-temperature tank at 25° C. The mixture after shaking was centrifuged (6000×g, for 5 minutes), the aqueous layer was sampled, and the concentration of the solvent dissolved was quantitatively determined by gas chromatography. Since Isopar was not a single compound but a mixture, the quantitative determination was performed as TOC (total organic carbon), which was converted into solubility according to the following equation, the average molecular weight being shown as Mw. Solubility [mg/L]=TOC [mg/L]×(14Mw/{12(Mw−2)}
In the case of a mixed solvent in which two or more kinds of solvents were mixed, the solubility in water was determined by multiplying the solubility of each solvent in water by each molar fraction and summing up the resulting products.
In the case where the solvent species used is unclear, the solubility in water can be measured by the above method through identification of the solvent species by mass spectroscopy or the like.

[3] = Solubility C (saturated concentration at 5° C.) of compound in low-polarity solvent and product εC; settings: for Solubility: in n-decane, at 5° C.; for ε · C: n-decane, C at 5° C.
Method: The solubility C of each compound in each solvent was measured as follows.
Each compound was added to each solvent until a dissolution residue came to remain, and the mixture was subjected to an ultrasonic treatment for 30 minutes at 30° C. After the mixture was allowed to stand at 5° C. for 24 hours, centrifugal filtration was performed through a filter of 0.1 μm using a microcentrifuge (centrifugal force 5200×g). The resulting saturated solution was diluted to an appropriate concentration, and measurement of absorption spectra was performed on Hitachi spectrophotometer U-4100 using a quartz cell having an optical path length for measurement of 10 mm. The concentration of each compound was determined from a relationship between the absorbance at the absorption-maximum wavelength λmax (nm) and the molar extinction coefficient ε (L·mol^−1·cm^−1) previously measured, and the solubility C (mol·L^−1) was calculated. Moreover, the value of the product of the molar extinction coefficient ε (L·mol^−1·cm^−1) and the solubility C (mol·L^−1), εC, was determined.
Sudan Black B (manufactured by Tokyo Chemical Industry Co., Ltd.) that is a commercially available oil-soluble black dye was added to n-decane (relative permittivity 2.0, solubility in water 1 mg/L or less) until a dissolution residue came to remain, and the mixture was subjected to an ultrasonic treatment for 30 minutes at 30° C. After the mixture was allowed to stand at 5° C. for 24 hours, centrifugal filtration was performed through a filter of 0.1 μm using a microcentrifuge (centrifugal force 5200×g). The resulting saturated n-decane solution was diluted to an appropriate concentration.

[4] = Absorption-maximum wavelength λmax, molar extinction coefficient ε and solution colour in each solvent; settings: for Absorption-maximum wavelength / ε: n-decane; for Color tone: n-decane solution; for ε: at absorption-maximum wavelength
Method: Each of the compounds 1 to 15 and the comparative example compounds 1 and 2 (1 mg each) was dissolved in each solvent (100 ml) and measurement of absorption spectra was performed on Hitachi spectrophotometer U-4100 using a quartz cell having an optical path length for measurement of 10 mm. From the resulting spectra, absorption-maximum wavelength λmax (nm) and molar extinction coefficient ε ([…]) were determined.

| relative permittivity [1] | solubility at 4 h [2] | Compound | Solubility [3] | ε · C [3] | Absorption-maximum wavelength [4] | Color tone [4] | ε [4] |
| --- | --- | --- | --- | --- | --- | --- | --- |
| 2.0 |  | n-decaline |  |  |  |  |  |
| 2.0 | ≤ 1 µg/mL | CCCCCCCCCC [n-decane] |  |  |  |  |  |
|  |  | CCCCC(CC)CN(CC(CC)CCCC)c1ccc(N=Nc2sc(C=C(C#N)C#N)c(Cl)c2C#N)c(NC(=O)C(CC)CCCC)c1 (stereo not shown) [Compound 11] | 89 mM (≈ 62.7 mg/mL) | 5300 cm⁻¹ | 642 nm | blue | 60000 L/mol/cm |
|  |  | CCCCc1ccc(N=Nc2cc(C#N)c(N=Nc3cc(OC)c(N(CC(CC)CCCC)CC(CC)CCCC)cc3NC(=O)CC)s2)cc1 (stereo not shown) [Compound 13] | 59 mM (≈ 42.1 mg/mL) | 4400 cm⁻¹ | 667 nm | blue | 76000 L/mol/cm |
